# Reference: ChEMBL document CHEMBL2169745, “Photoinduced DNA cleavage by anthracene based hydroxamic acids” (Bioorg Med Chem Lett, 2012)
# Key:
# Format in all cases: nucleic-acid assay
# [1] = tested on: Nucleic Acid; test: Induction of DNA cleavage in Escherichia coli pBR322 DNA assessed as formation of relaxed circular DNA at 100 uM treated for 1 hr using ethidium bromide staining by agarose gel electrophoresis analysis in presence of UV light; design: scale not given: the % may be the effect or the level left
# [2] = tested on: Nucleic Acid; test: Induction of DNA cleavage in Escherichia coli pBR322 DNA assessed as formation of relaxed circular DNA at 40 uM treated for 1 hr using ethidium bromide staining by agarose gel electrophoresis analysis in presence of UV light; design: scale not given: the % may be the effect or the level left
# [3] = tested on: Nucleic Acid; test: Induction of DNA cleavage in Escherichia coli pBR322 DNA assessed as formation of relaxed circular DNA at 100 uM treated for 1 hr using ethidium bromide staining by agarose gel electrophoresis analysis in presence of UV light and DMSO; design: scale not given: the % may be the effect or the level left
# [4] = tested on: Nucleic Acid; test: Induction of DNA cleavage in Escherichia coli pBR322 DNA assessed as formation of relaxed circular DNA at 100 uM treated for 1 hr using ethidium bromide staining by agarose gel electrophoresis analysis in presence of UV light and 150 mM of NaN3; design: scale not given: the % may be the effect or the level left
# [5] = tested on: Nucleic Acid; test: Induction of DNA cleavage in Escherichia coli pBR322 DNA assessed as formation of relaxed circular DNA at 100 uM treated for 1 hr using ethidium bromide staining by agarose gel electrophoresis analysis in presence of UV light and D2O; design: scale not given: the % may be the effect or the level left
# [6] = tested on: Nucleic Acid; test: Induction of DNA cleavage in Escherichia coli pBR322 DNA assessed as formation of relaxed circular DNA at 100 uM treated for 1 hr using ethidium bromide staining by agarose gel electrophoresis analysis in presence of UV light and 20 mM of NaN3; design: scale not given: the % may be the effect or the level left
# [7] = tested on: Nucleic Acid; test: Induction of DNA cleavage in Escherichia coli pBR322 DNA assessed as formation of relaxed circular DNA at 100 uM treated for 1 hr using ethidium bromide staining by agarose gel electrophoresis analysis in presence of UV light and 40 mM of NaN3; design: scale not given: the % may be the effect or the level left
# [8] = tested on: Nucleic Acid; test: Induction of DNA cleavage in Escherichia coli pBR322 DNA assessed as formation of relaxed circular DNA at 50 uM treated for 1 hr using ethidium bromide staining by agarose gel electrophoresis analysis in presence of UV light; design: scale not given: the % may be the effect or the level left
# [9] = tested on: Nucleic Acid; test: Induction of DNA cleavage in Escherichia coli pBR322 DNA assessed as formation of relaxed circular DNA at 100 uM treated for 1 hr using ethidium bromide staining by agarose gel electrophoresis analysis in presence of bubbling with O2 gas; design: scale not given: the % may be the effect or the level left
# [10] = tested on: Nucleic Acid; test: Induction of DNA cleavage in Escherichia coli pBR322 DNA assessed as formation of relaxed circular DNA at 100 uM treated for 1 hr using ethidium bromide staining by agarose gel electrophoresis analysis in presence of bubbling with Ar gas; design: scale not given: the % may be the effect or the level left
# [11] = tested on: Nucleic Acid; test: Induction of DNA cleavage in Escherichia coli pBR322 DNA assessed as formation of relaxed circular DNA at 10 uM treated for 1 hr using ethidium bromide staining by agarose gel electrophoresis analysis in presence of UV light; design: scale not given: the % may be the effect or the level left
# [12] = tested on: Nucleic Acid; test: Induction of DNA cleavage in Escherichia coli pBR322 DNA assessed as formation of relaxed circular DNA at 100 uM treated for 1 hr using ethidium bromide staining by agarose gel electrophoresis analysis in presence of UV light and 300 mM of NaN3; design: scale not given: the % may be the effect or the level left
# [13] = tested on: Nucleic Acid; test: Induction of DNA cleavage in Escherichia coli pBR322 DNA assessed as formation of relaxed circular DNA at 100 uM treated for 1 hr using ethidium bromide staining by agarose gel electrophoresis analysis in presence of UV light and DABCO; design: scale not given: the % may be the effect or the level left
# [14] = tested on: Nucleic Acid; test: Induction of DNA cleavage in Escherichia coli pBR322 DNA assessed as formation of relaxed circular DNA at 25 uM treated for 1 hr using ethidium bromide staining by agarose gel electrophoresis analysis in presence of UV light; design: scale not given: the % may be the effect or the level left
# [15] = tested on: Nucleic Acid; test: Induction of DNA cleavage in Escherichia coli pBR322 DNA assessed as formation of relaxed circular DNA at 75 uM treated for 1 hr using ethidium bromide staining by agarose gel electrophoresis analysis in presence of UV light; design: scale not given: the % may be the effect or the level left
# [16] = tested on: Nucleic Acid; test: Induction of DNA cleavage in Escherichia coli pBR322 DNA assessed as formation of relaxed circular DNA at 100 uM treated for 1 hr using ethidium bromide staining by agarose gel electrophoresis analysis in presence of UV light and ascorbic acid; design: scale not given: the % may be the effect or the level left
# [17] = tested on: Nucleic Acid; test: Induction of DNA cleavage in Escherichia coli pBR322 DNA assessed as formation of relaxed circular DNA at 100 uM treated for 1 hr using ethidium bromide staining by agarose gel electrophoresis analysis in presence of UV light and 75 mM of NaN3; design: scale not given: the % may be the effect or the level left
# [18] = tested on: Nucleic Acid; test: Induction of DNA cleavage in Escherichia coli pBR322 DNA assessed as formation of relaxed circular DNA at 100 uM treated for 1 hr using ethidium bromide staining by agarose gel electrophoresis analysis in presence of UV light and 600 mM of NaN3; design: scale not given: the % may be the effect or the level left
# [19] = tested on: Nucleic Acid; test: Induction of DNA cleavage in Escherichia coli pBR322 DNA assessed as formation of relaxed circular DNA treated for 1 hr using ethidium bromide staining by agarose gel electrophoresis analysis in presence of UV light
smiles,measurement,setting,value
O=C(O)C(Cc1ccccc1)NCc1c2ccccc2cc2ccccc12 (stereo not drawn),Activity,[1],60%
O=C(NO)C(NCc1c2ccccc2cc2ccccc12)c1ccccc1 (stereo not drawn),Activity,[1],98%
O=C(/C=C/c1cccc2ccccc12)NC(Cc1ccccc1)C(=O)NO (stereo not drawn),Activity,[1],15%
O=C(NO)C(Cc1ccccc1)NCc1cccc2ccccc12 (stereo not drawn),Activity,[1],16%
O=C(/C=C/c1c2ccccc2cc2ccccc12)NC(Cc1ccccc1)C(=O)O (stereo not drawn),Activity,[1],35%
O=C(/C=C/c1c2ccccc2cc2ccccc12)NC(C(=O)NO)c1ccccc1 (stereo not drawn),Activity,[1],99%
O=C(NO)C(Cc1c[nH]c2ccccc12)NCc1c2ccccc2cc2ccccc12 (stereo not drawn),Activity,[1],91%
O=C(NO)C(Cc1ccccc1)NCc1c2ccccc2cc2ccccc12 (stereo not drawn),Activity,[2],10%
same,Activity,[3],54%
same,Activity,[4],63%
same,Activity,[5],100%
same,Activity,[6],97%
same,Activity,[7],86%
same,Activity,[8],25%
same,Activity,[9],100%
same,Activity,[10],75%
same,Activity,[11],2%
same,Activity,[12],62%
same,Activity,[1],97%
same,Activity,[13],74%
same,Activity,[14],4%
same,Activity,[15],67%
same,Activity,[16],37%
same,Activity,[17],77%
same,Activity,[18],62%
same,Activity,[19],Dose-dependent effect
O=C(/C=C/c1c2ccccc2cc2ccccc12)NC(Cc1c[nH]c2ccccc12)C(=O)NO (stereo not drawn),Activity,[1],89%
O=C(/C=C/c1c2ccccc2cc2ccccc12)NC(Cc1ccccc1)C(=O)NO (stereo not drawn),Activity,[1],98%
